Laboratory results published in patent publication US12053452B2 (priority 2021, dated 2024).

What was measured:
Type in all cases: in vivo
BTBR mice [1] = experiment: Radiotelemetry of core temperature, BTBR
Description: The radiotelemetry assay was conducted in adult male C57 and BTBR mice (n=6 per group) in a dedicated testing room where ambient light, sound, and human contact were tightly controlled.
Prior to surgical implantation of radiotelemetry probes, mice received 3 mg/kg meloxicam (IP), and anesthesia was induced with 4% inhaled isoflurane and maintained with 1-3% isoflurane (as needed) throughout the procedure at a flow rate of 1.5 litres/minute. The abdominal area of each animal was treated with depilatory cream, then sanitized with 3 alternating scrubs with iodine and alcohol. A rostral-caudal cut approximately 1.5 cm in length was made with sterile skin scissors, providing access to the intraperitoneal cavity. A cylindrical glass-encapsulated radiotelemetry probe (model ER-4000 E-Mitter, Mini Mitter, Bend, OR, USA) was then inserted. These probes measure 15.5 mm×6.5 mm and weigh approximately 1 gram. Incisions were closed (skin layer and muscle layer separately) using reverse cutting 5-0 Vicryl absorbable sutures for the muscle layer and 5-0 nylon suture material for the skin layer. Surgeries were carried out at least 7 days before initiation of experimental conditions, allowing time for incisions to heal and for animals to recover normal body weights. Following surgery, all implanted mice were individually housed in Plexiglas cages within the telemetry room for the duration of all experiments. Implanted transmitters produce activity- and temperature-modulated signals which are sent to a receiver (model ER-4000 Receiver, Mini Mitter Co., Inc.) underneath each cage. Following use, telemetry probes were removed from carcasses, wiped with alcohol swabs, and stored in the disinfectant solution until re-use.
At least 7 days after surgical implantation of radiotelemetry probes, mice in their individual home cages were placed atop a telemetry energizer/receiver, which powered probes and transmitted their data to an interfaced computer. Upon initiation of an experimental session, the computer collected two data updates from the probes at 5 min intervals: core temperature (in ° C.) on one channel, and locomotor counts (in arbitrary units, depending on the relative position of the probe atop the receiver) on the other. After at least 60 minutes of baseline data collection, mice were removed from their cages, injected with saline or a given dose of a specific drug, then returned to the home cage 24 hours of data collection.
Food and water were always freely available in the home cage. Mice were injected with ascending doses of a given drug, with at least 48 hours separating doses. Because there are few studies of drug effects in BTBR mice, the first drug dose tested occasionally elicited unexpectedly large locomotor effects in these animals. In these cases, smaller drug doses were tested next, after a washout period of at least one full day.

C57 mice [2] = experiment: Sociability test, C57
Description: (§1) This assay was conducted in adult male C57 and BTBR mice (n=6 per group) in a dedicated conditioning room where ambient light, sound, and human contact were tightly controlled. Social preference chambers consist of two polycarbonate boxes (13.5 cm wide×22.5 cm tall×31.0 cm deep), floored with rough-textured black ABS plastic, and connected to one another by a 1.25″ PVC T-junction. An infrared photobeam emitter/detector array is mounted at each intersection of the T-junction and each preference compartment, and as a mouse traversed the apparatus, it would break the photobeam upon entry to or exit from each preference compartment. Beam breaks started or stopped a counter on an interfaced computer, allowing automated collection of time spent in each compartment. At the end of each test, data were reported as time (in seconds) spent in each compartment, the number of entries into each compartment, and the average time spent in each compartment following an entry. Social preference tests were conducted in an iterative manner, with each test subject completing four distinct phases as described below. Between testing sessions, chambers were sanitized by wiping the insides with a disinfectant product provided by the UAMS Department of Laboratory Animal Medicine. At the end of the week (upon completion of all phases of the procedure), each apparatus was disassembled and all parts were sanitized. No food or water were available during social preference sessions, but were available in the home cage immediately afterwards.
A single sociability session occurred the day after the novelty preference test, where one compartment contained a wire mesh cup with a dummy mouse inside while the other compartment contained a male NIH Swiss stranger mouse inside the previously empty cup. […] The position of the dummy mouse (left or right compartment) remained the same for each subject as during the novelty test the day before, thereby counterbalancing the position of the stranger mouse across subjects. NIH Swiss stranger mice were similar in mass and appearance to the dummy PVC mice, and were housed separately from the experimental subjects (C57 and BTBR mice) in the colony facility. The first time the experimental subjects ever encountered the stranger mice was when they entered the compartment where they were contained. During this session, mice were weighed, administered the same injection as the day before, and returned to their home cage for a 30 min pretreatment period. Mice were then introduced into the T-junction and allowed to explore both preference compartments for 15 minutes. Sociability tests always occurred on Wednesdays or Thursdays to prevent any weekend testing.

BTBR mice [3] = experiment: Social preference procedure: compartment entries (proxy for locomotor stimulant effects), BTBR
Description: as §1
Quantification of total entries into the preference compartments provided a proxy measurement for locomotor stimulant effects of the various doses of the various test drugs. This established a limit to the drug doses that can be tested in the social preference procedure, as induction of locomotor stimulant effects confounds preference assessments (because mice stop attending to the social stimuli in each compartment and instead spend their time engaged in locomotor behavior.) Motor activity varied across the distinct phases of social preference testing, in part because the habituation session is twice as long (30 minutes) as the novelty, sociability, and social novelty tests (15 minutes each), but also because mice emitted high levels of exploratory behavior in novel environments. Thus, as familiarity with the test apparatus increased over successive exposures to the chambers, the number of entries decreased.
(Note that entries were collected for every test, but drug effects on entries during earlier phases may be less reliable due to the confounding influence of changing familiarity with the apparatus across phases.)

BTBR mice [4] = experiment: Social novelty preference test, BTBR (autism spectrum disorder model); conditions: BTBR mice
Description: as §1
A single social novelty preference session occurred the day after the sociability test, where one compartment contained a wire mesh cup with the same NIH Swiss mouse from the previous day inside (referred to now as the “familiar” mouse) while the other compartment contained a new male NIH Swiss stranger mouse inside the cup which previously contained the dummy mouse during the sociability test. […]

C57 mice [5] = experiment: Social novelty preference test, C57
Description: as §1
A single social novelty preference session occurred the day after the sociability test, where one compartment contained a wire mesh cup with the same NIH Swiss mouse from the previous day inside (referred to now as the “familiar” mouse) while the other compartment contained a new male NIH Swiss stranger mouse inside the cup which previously contained the dummy mouse during the sociability test. […] The position of the now familiar NIH Swiss mouse (left or right compartment) remained the same for each subject as during the sociability test the day before, thereby counterbalancing the position of the new NIH Swiss stranger mouse across subjects. As before, the new NIH Swiss stranger mice were housed separately from the experimental subjects (C57 and BTBR mice) in the colony facility, and the first time the experimental subjects ever encountered them was when they entered the compartment where they were contained. During this session, mice were weighed, administered the same injection as the day before, and returned to their home cage for a 30 min pretreatment period. Mice were then introduced into the T-junction and allowed to explore both preference compartments for 15 minutes. Social novelty tests always occurred on Thursdays or Fridays to prevent any weekend testing.

[6] = 3.0 mg/kg IP, listed as racemic (50/50) MDMA, 3 mg/kg

For `CNC(C)Cc1ccc2c(c1)OCO2` (racemic) [racemic MDMA, 1-(1,3-benzodioxol-5-yl)-N-methylpropan-2-amine], the “effect on core temperature” value (BTBR mice [1]; 30 mg/kg IP) was “results in an increase in temperature but is not as significant as S-MDMA”, the “rise in core temperature” value (BTBR mice [1]; 56 mg/kg IP) was roughly 2 degrees C and the “effect on core temperature” value (BTBR mice [1]; various/increasing doses IP) was “gradual increase in core temperature”. For the same compound, the “effect on core temperature” value (BTBR mice [1]; various/increasing doses IP, listed as racemic compositions of MDMA) was “dose dependent increase in temperature”, the “sociability (time spent with the stranger mouse vs dummy)” value (C57 mice [2]; 3.0 mg/kg IP, 3 mg/kg) was “moderate preference for the stranger over the dummy” and the “sociability (time spent with the stranger mouse vs dummy)” value (C57 mice [2]; [6]) was “elicit significant effects on sociability”. The “sociability (time spent with the stranger mouse vs dummy)” value (C57 mice [2]; various doses IP) was “dose-dependent increase in time spent with the stranger mouse”, the “compartment entries (locomotor stimulant effect)” value (from here on “compartment entries”) (BTBR mice [3]; 3.0 mg/kg IP, social novelty test) was “increased the number of entries” and the “compartment entries” value (BTBR mice [3]; 5.6 mg/kg IP, social novelty test) was roughly 100 entries. For the same compound, the “compartment entries” value (BTBR mice [3]; all tested doses IP) was “dose-response stimulant effect”, the “social novelty preference (new stranger mouse vs familiar mouse)” value (BTBR mice [4]; all doses IP) was “exhibiting preferences for the stranger mouse” and the “social novelty preference (new stranger mouse vs familiar mouse)” value (C57 mice [5]; 3.0 mg/kg IP, 3 mg/kg) was “strong preference for the stranger over the now familiar mouse”. The “social novelty preference (new stranger mouse vs familiar mouse)” value (C57 mice [5]; [6]) was “elicit significant effects on sociability”, the “social novelty preference (new stranger mouse vs familiar mouse)” value (C57 mice [5]; various doses IP) was “dose-dependent increase in time spent with the stranger mouse” and the “social novelty preference (new stranger mouse vs familiar mouse)” value (C57 mice [5]; various doses IP, listed as Racemic MDMA) was “bi-phasic dose-response preference for stranger mouse over familiar mouse, with maximum preference documented at 3 mg/kg dose”.

For `CN[C@@H](C)Cc1ccc2c(c1)OCO2` [S(+)-MDMA, (2S)-1-(1,3-benzodioxol-5-yl)-N-methylpropan-2-amine], the “effect on core temperature” value (BTBR mice [1]; 10 mg/kg IP, 10 mg/kg) was “elicited a similar increase in temperature”, the “effect on core temperature” value (BTBR mice [1]; 10 mg/kg IP, listed as S-MDMA, 10 mg/kg) was “did not differ much from that observed with Racemic MDMA” and the “jump in core temperature” value (BTBR mice [1]; 18 mg/kg i.p) was “greater than that observed by administration of 56 mg/kg i.p of Racemic MDMA”. The “effect on core temperature” value (BTBR mice [1]; 30 mg/kg IP, 30 mg/kg) was “elicited a large hyperthermic response”, the “effect on core temperature” value (BTBR mice [1]; 30 mg/kg IP, listed as S-MDMA, 30 mg/kg) was “strong hyperthermic response” and the “effect on core temperature” value (BTBR mice [1]; various/increasing doses IP) was “dose dependent increase in temperature”. For the same compound, the “effect on core temperature” value (BTBR mice [1]; various/increasing doses IP, listed as S-MDMA) was “dose-dependent increase in temperature”, the “sociability (time spent with the stranger mouse vs dummy)” value (C57 mice [2]; 3.0 mg/kg IP) was “not different from saline” and the “sociability (time spent with the stranger mouse vs dummy)” value (C57 mice [2]; various doses IP) was “no systematic effects on sociability”. The “compartment entries” value (BTBR mice [3]; 3.0 mg/kg IP, social novelty test, 3 mg/kg) was “roughly equivalent entries to 3.0 mg/kg racemic MDMA”, the “compartment entries” value (BTBR mice [3]; 3.0 mg/kg IP, social novelty test, listed as S-MDMA, 3 mg/kg) was “increased the number of entries” and the “compartment entries” value (BTBR mice [3]; all tested doses IP) was “dose-response stimulant effect”. The “social novelty preference (new stranger mouse vs familiar mouse)” value (BTBR mice [4]; 3.0 mg/kg IP) was “elicited a strong preference for the stranger mouse”, the “social novelty preference (new stranger mouse vs familiar mouse)” value (C57 mice [5]; 3.0 mg/kg IP) was “not different from saline” and the “social novelty preference (new stranger mouse vs familiar mouse)” value (C57 mice [5]; 3.0 mg/kg and 5.6 mg/kg IP) was “does not elicit any substantial preference for the stranger mouse”. For the same compound, the “social novelty preference (new stranger mouse vs familiar mouse)” value (C57 mice [5]; various doses IP) was “no systematic effects on social novelty preference”.
